Where two headings read alike, the source gives them in different places.
How the values were obtained:
[1] = system: PAC1 receptor; parameters: method as in 2 sources, one per row (each row's own in cited_ref): ref Yu et al. [2014] ||| ref Vaudry et al. [2009]; conditions: vs VIP, ref Yu et al. [2014], cited from earlier work
Description: The retinoprotective effects of PACAP are well-documented and have been proven in different injury models, such as excitotoxic, ischemic, UV light-induced, traumatic, diabetic and oxygen-induced injuries (Atlasz et al. [2008], [2011], [2016]; Kvarik et al. [2016]; Shioda et al. [2016]; Szabadfi et al. [2016]; Vaczy et al. [2016]). […] P ...

[2] = system: retina (BCCAO-induced retinopathy); assay: Number of cells in retinal nuclear layers and GCL after BCCAO, eye drops; format: in vivo, rat (male); conditions: eye drops 1 μg/drop, twice a day, five days, vs BCCAO-induced degenerated retinas, 14 days
Method: Adult male rat litters were housed in the animal facility in individual cages in a 12 h light-dark cycle with food and water ad libitum. Animal housing, care and application of experimental procedures were in accordance with institutional guidelines under approved protocols (No: BA02/2000–26/2017, University of Pecs). Under isoflurane anesthesia, common carotid arteries were exposed on both sides through a midline incision and then ligated with a 3–0 filament. A group of animals (sham group) underwent all steps of the operating procedure except ligation of the carotid arteries. Immediately following the operation, the right eye of the animals was treated with derivatives of PACAP (PACAP-TAT /n = 17/ or VIP-TAT /n = 17/) eye drops (1 μg/drop). Dose and schedule of the eye drop treatments were based on our previous experiments (Werling et al. [2016]). In the experiment for histological analysis, the different derivatives were dissolved in benzalkonium solution for ophthalmic use (solutio ophthalmica cum benzalkonio (SOCB)). The left eye, serving as a control, was treated with vehicle containing neither PACAP-TAT nor VIP-TAT. Animals were treated for five consecutive days, twice a day with one drop of drug, under brief isoflurane anesthesia (max. 5 min).
Fourteen days after the operation, rats (n = 10 SHAM and n = 24 BCCAO) were killed with anesthetic and the eyes were processed for histology. The eyes were removed and the retinas were solved in phosphate buffered saline (PBS), fixed in 4% paraformaldehyde dissolved in 0.1 M phosphate buffer (PB) (Sigma, Budapest, Hungary) and embedded in Durcupan ACM resin (Sigma, Budapest, Hungary). Retinas were cut at 2 μm and stained with toluidine blue dye (Sigma, Hungary). Sections were mounted in DPX medium (Sigma, Hungary) and photographs were taken with a digital CCD camera using the Spot program. Central retinal areas within 1 mm from the optic nerve were used (n = 5 measurements from one tissue block). The following parameters were measured: (i) cross-section of the retina from the outer limiting membrane (OLM) to the inner limiting membrane (ILM), (ii) the width of individual retinal layers (outer nuclear layer [ONL], outer plexiform layer [OPL], inner nuclear layer [INL], inner plexiform layer [IPL]), (iii) the number of cells/100 μm section length in the GCL, and the (iv) number of cells/[…]. Results are presented as mean ± SEM. Statistical comparisons were made using the two-way ANOVA test followed by Tukey’s post hoc analysis.
(§1) Fig. 5 Quantification of the number of cells/100 μm GCL length (a), the number of cells/500 μm^2 ONL (b) and INL (c) areas in SHAM+SOCB, in SHAM+PACAP-TAT, in BCCAO+SOCB, and in BCCAO+PACAP-TAT animals. Statistical significance (*p < 0.05 vs. SHAM+SOCB retinas, #p < 0.05 vs. BCCAO+SOCB retinas) was calculated by two-way ANOVA followed by Bonferroni’s post hoc test
as §1, with “Fig. 7” for “Fig. 5”, “in SHAM+VIP-TAT,” for “in SHAM+PACAP-TAT,”, “in BCCAO+VIP-TAT” for “in BCCAO+PACAP-TAT”

[3] = biological target: T1, PAC1-R (Homo sapiens, UniProt P41586); assay: cAMP accumulation assay in PAC1-CHO cells; format: cell-based
T1 construct: expressed in transfected cells; host or cells: PAC1-CHO cells (CHO cells expressing PAC1-R); That they are transfected is inferred from the cell line's name
T1 sequence (P41586 21-468): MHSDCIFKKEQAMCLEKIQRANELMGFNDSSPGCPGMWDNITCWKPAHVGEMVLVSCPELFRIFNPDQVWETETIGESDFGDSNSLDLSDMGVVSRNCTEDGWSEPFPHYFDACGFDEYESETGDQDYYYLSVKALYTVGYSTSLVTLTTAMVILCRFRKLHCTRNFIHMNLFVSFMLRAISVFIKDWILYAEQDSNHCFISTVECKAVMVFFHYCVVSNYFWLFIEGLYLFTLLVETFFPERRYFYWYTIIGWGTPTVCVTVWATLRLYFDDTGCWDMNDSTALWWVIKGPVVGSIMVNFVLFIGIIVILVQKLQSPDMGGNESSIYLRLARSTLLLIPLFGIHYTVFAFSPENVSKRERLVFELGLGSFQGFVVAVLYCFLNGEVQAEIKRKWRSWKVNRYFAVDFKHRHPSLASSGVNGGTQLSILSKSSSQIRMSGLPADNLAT
Method: PAC1-CHO cells cultured in Dulbecco’s Modified Eagle’s Medium (DMEM) at 37 °C were scraped off the surface with rubber policeman, washed twice with PBS and the density of the cells was adjusted to 2 × 10^6 /mL. Peptides were added to 500 uL cells suspension with the corresponding varying working concentrations of the detected factor. After incubation at 37 °C for 5-10 min cells were harvested and the lysates were subjected to cAMP quantification using the enzyme immunoassay kit for cAMP (Biyuntian, Shanghai, China), following the manufacturer’s instructions. Protein concentration of each sample was determined using BCA assay, and the cAMP level of each sample was calculated following the formula: cAMP level (pmol/mg protein) = cAMP concentration (pmol/mL)/protein concentration (mg/mL). The cAMP level in each sample was plotted as the percentage (%) of the maximal cAMP level in cells treated with PACAP27 versus the logarithmic value of the peptide concentrations. All experiments were run with at least four parallel samples and were repeated three times.
The data are means ± SEM of four experiments

CC[C@H](C)[C@H](NC(=O)[C@H](CO)NC(=O)[C@H](CC(N)=O)NC(=O)[C@H](CC(C)C)NC(=O)[C@H](Cc1ccc(O)cc1)NC(=O)[C@H](CCCCN)NC(=O)[C@H](CCCCN)NC(=O)[C@@H](NC(=O)[C@H](C)NC(=O)[C@H](CCSC)NC(=O)[C@H](CCC(N)=O)NC(=O)[C@H](CCCCN)NC(=O)[C@H](CCCNC(=N)N)NC(=O)[C@H](CC(C)C)NC(=O)[C@H](CCCNC(=N)N)NC(=O)[C@@H](NC(=O)[C@H](Cc1ccc(O)cc1)NC(=O)[C@H](CC(N)=O)NC(=O)[C@H](CC(=O)O)NC(=O)[C@@H](NC(=O)[C@H](Cc1ccccc1)NC(=O)[C@@H](NC(=O)[C@H](C)NC(=O)[C@H](CC(=O)O)NC(=O)[C@H](CO)NC(=O)[C@@H](N)Cc1c[nH]cn1)C(C)C)[C@@H](C)O)[C@@H](C)O)C(C)C)C(=O)N[C@@H](CC(C)C)C(=O)N[C@@H](CC(N)=O)C(=O)NCC(=O)N[C@@H](CCCNC(=N)N)C(=O)N[C@@H](CCCCN)C(=O)N[C@@H](CCCCN)C(=O)N[C@@H](CCCNC(=N)N)C(=O)N[C@@H](CCCNC(=N)N)C(=O)N[C@@H](CCC(N)=O)C(=O)N[C@@H](CCCNC(=N)N)C(=O)N[C@@H](CCCNC(=N)N)C(=O)N[C@@H](CCCNC(=N)N)C(=O)N1CCC[C@H]1C(=O)N[C@@H](CCC(N)=O)C(=O)O [VIP-TAT]
Activity on / affinity for PAC1 receptor relative to VIP [1]: higher activity on the activation of PACAP preferring PAC1receptor than VIP | Activity on / affinity for PAC1 receptor relative to VIP ([1]; listed as VIP bound to TAT peptide): higher affinity for PAC1-R | Number of cells in the GCL/100 μm after BCCAO [2]: reduced cell loss in almost all nuclear layers, except in the ONL/500 μm2 | Number of cells in the INL/500 μm2 after BCCAO [2]: reduced cell loss in almost all nuclear layers, except in the ONL/500 μm2 | EC50 as fraction of the EC50 of VIP ([3]; VIP-TAT vs VIP): about 1/200 | Effect of TAT-tagging on activation of PAC1-R (cAMP), in words ([3]; tagged vs untagged peptide): enhanced the activity of VIP on the activation of PAC1-R

— PMC6581923 (Journal of Molecular Neuroscience, 2018)
